Where two headings read alike, the source gives them in different places.
Columns and labels:
NMDAR2A = target: T1, NMDAR2A (Homo sapiens, UniProt Q12879); assay: NMDAR agonist assay, [3H]MK-801 binding, NMDAR2A expressing HEK cell membranes; format: biochemical; conditions: 50 μM glutamate; for EC50: read-out: NMDAR2A B: log EC50 (converted); for Emax: 0.25 h, read-out: NMDAR2A A: % maximal [3H]MK-801 binding relative to 1 mM glycine; for NMDAR2A A: % maximal [3H]MK-801 binding relative to 1 mM glycine / Emax: relative to 1 mM glycine
T1 construct: expressed in transfected cells; host or cells: HEK cells (membrane extract)
T1 sequence (Q12879 23-1464, species assumed, other chains not shown): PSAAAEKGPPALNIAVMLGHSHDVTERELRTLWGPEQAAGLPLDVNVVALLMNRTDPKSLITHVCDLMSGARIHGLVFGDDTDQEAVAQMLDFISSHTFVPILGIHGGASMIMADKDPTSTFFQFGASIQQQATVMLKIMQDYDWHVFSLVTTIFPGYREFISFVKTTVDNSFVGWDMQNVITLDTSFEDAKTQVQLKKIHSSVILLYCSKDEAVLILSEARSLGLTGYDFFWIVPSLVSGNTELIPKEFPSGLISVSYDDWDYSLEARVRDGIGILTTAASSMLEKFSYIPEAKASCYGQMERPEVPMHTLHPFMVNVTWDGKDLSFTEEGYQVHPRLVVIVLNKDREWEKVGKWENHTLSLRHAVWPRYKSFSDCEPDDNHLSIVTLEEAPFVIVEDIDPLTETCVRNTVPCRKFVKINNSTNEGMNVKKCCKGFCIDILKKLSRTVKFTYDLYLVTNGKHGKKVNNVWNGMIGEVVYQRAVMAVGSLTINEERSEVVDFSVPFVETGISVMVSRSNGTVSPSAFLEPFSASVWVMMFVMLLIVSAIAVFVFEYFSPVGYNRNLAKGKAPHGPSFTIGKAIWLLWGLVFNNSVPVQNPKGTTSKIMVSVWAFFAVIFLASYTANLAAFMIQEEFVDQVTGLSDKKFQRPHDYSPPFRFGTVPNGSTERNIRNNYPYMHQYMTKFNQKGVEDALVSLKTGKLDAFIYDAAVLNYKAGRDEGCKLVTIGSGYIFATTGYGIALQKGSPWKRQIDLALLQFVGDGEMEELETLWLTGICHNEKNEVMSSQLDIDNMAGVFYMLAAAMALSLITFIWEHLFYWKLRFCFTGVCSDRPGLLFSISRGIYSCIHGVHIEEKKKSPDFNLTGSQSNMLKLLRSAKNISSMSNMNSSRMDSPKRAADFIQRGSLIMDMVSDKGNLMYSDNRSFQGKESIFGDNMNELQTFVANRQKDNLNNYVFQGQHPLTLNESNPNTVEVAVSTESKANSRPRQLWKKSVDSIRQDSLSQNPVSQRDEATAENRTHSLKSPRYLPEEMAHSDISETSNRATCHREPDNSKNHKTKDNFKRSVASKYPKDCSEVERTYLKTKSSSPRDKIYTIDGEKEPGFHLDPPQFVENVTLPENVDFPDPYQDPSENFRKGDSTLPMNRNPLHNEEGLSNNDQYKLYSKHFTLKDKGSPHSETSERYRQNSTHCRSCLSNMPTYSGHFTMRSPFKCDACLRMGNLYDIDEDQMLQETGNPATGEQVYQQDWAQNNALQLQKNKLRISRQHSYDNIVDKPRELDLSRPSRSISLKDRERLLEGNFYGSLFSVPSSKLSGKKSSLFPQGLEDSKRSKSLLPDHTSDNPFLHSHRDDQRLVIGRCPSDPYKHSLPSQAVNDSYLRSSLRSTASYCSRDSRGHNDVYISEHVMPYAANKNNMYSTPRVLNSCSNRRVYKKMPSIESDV
Protocol: (§1) Assays were conducted as described by Moskal et al., “GLYX-13: a monoclonal antibody-derived peptide that acts as an N-methyl-D-aspartate receptor modulator,” Neuropharmacology, 49, 1077-87, 2005. These studies were designed to determine if the test compounds act to facilitate NMDAR activation in NMDAR2A, NMDAR2B, NMDAR2C or NMDAR2D expressing HEK cell membranes as measured by increases in [^3H]MK-801 binding.
(§2) In the assay, 300 μg of NMDAR expressing HEK cell membrane extract protein was preincubated for 15 minutes at […] in the presence of saturating concentrations of glutamate (50 μM) and varying concentrations of test compound (1×10^−15M-1×10^−7M), or 1 mM glycine. Following the addition of 0.3 μCi of [3H]MK-801 (22.5 Ci/mmol), reactions were again incubated for 15 minutes at 25° C. (nonequilibrium conditions). Bound and free [3H]MK-801 were separated via rapid filtration using a Brandel apparatus.
(§3) In analyzing the data, the DPM (disintegrations per minute) of [3H]MK-801 remaining on the filter were measured for each concentration of test compound or for 1 mM glycine. The DPM values for each concentration of a ligand (N=2) were averaged. The baseline value was determined from the best fit curve of the DPM values modeled using the GraphPad program and the log(agonist) vs. response (three parameters) algorithm was then subtracted from all points in the dataset. The % maximal [^3H]MK-801 binding was then calculated relative to that of 1 mM glycine: all baseline subtracted DPM values were divided by the average value for 1 mM glycine. The EC50 and % maximal activity were then obtained from the best fit curve of the % maximal [3H]MK-801 binding data modelled using the GraphPad program and the log(agonist) vs. response (three parameters) algorithm.
(§4) The tables below summarize the results for the wild type […] NMDAR2A, NMDAR2B, NMDAR2C, and NMDAR2D, and whether the compound is not an agonist (−), is an agonist (+), or is a strong agonist (++), where column A is based on the % maximal [3H]MK-801 binding relative to 1 mM glycine (−=0; <100%=+; and >100%=++); and column B is based on log EC50 values (0=−; ≥1×10^−9 M (e.g., −8)=+; and <1×10^−9 M (e.g., −10)=++).

[1] = Microsomal stability (Rat); format: in vitro ADME; conditions: after 60 minutes
Protocol: (§5) Microsomal stability of disclosed compounds was investigated. The following table indicates the percent of compound remaining after 60 minutes.

Plasma stability (Human) = format: in vitro ADME; conditions: after 60 minutes
Protocol: (§6) Plasma stability of disclosed compounds was investigated. The following table indicates the percent of compound remaining after 60 minutes.

[2] = Microsomal stability (Human); format: in vitro ADME; conditions: after 60 minutes
Protocol: as §5

Plasma stability (Rat) = format: in vitro ADME; conditions: after 60 minutes
Protocol: as §6

[3] = Oral pharmacokinetics in Sprague Dawley rats (plasma, brain, CSF); format: in vivo; conditions: rat
Protocol: In another experiment, Sprague Dawley rats were dosed per os (oral gavage) using a normal saline formulation containing 10 mg/kg of the compounds identified in the table below. Plasma, brain, and CSF samples were analyzed at various time points over a 24 hour period. The table below summarizes the results of the oral pharmacokinetics, where the first three values (Tmax, Cmax and AUClast) are plasma values.

NMDAR2B = target: T2, NMDAR2B (Homo sapiens, UniProt Q13224); assay: NMDAR agonist assay, [3H]MK-801 binding, NMDAR2B expressing HEK cell membranes; format: biochemical; conditions: 50 μM glutamate; for EC50: read-out: NMDAR2B B: log EC50 (converted); for NMDAR2B A: % maximal [3H]MK-801 binding relative to 1 mM glycine / Emax: relative to 1 mM glycine; for Emax: read-out: NMDAR2B A: % maximal [3H]MK-801 binding relative to 1 mM glycine
T2 construct: expressed in transfected cells; host or cells: HEK cells (membrane extract)
T2 sequence (Q13224 27-1484, species assumed, other chains not shown): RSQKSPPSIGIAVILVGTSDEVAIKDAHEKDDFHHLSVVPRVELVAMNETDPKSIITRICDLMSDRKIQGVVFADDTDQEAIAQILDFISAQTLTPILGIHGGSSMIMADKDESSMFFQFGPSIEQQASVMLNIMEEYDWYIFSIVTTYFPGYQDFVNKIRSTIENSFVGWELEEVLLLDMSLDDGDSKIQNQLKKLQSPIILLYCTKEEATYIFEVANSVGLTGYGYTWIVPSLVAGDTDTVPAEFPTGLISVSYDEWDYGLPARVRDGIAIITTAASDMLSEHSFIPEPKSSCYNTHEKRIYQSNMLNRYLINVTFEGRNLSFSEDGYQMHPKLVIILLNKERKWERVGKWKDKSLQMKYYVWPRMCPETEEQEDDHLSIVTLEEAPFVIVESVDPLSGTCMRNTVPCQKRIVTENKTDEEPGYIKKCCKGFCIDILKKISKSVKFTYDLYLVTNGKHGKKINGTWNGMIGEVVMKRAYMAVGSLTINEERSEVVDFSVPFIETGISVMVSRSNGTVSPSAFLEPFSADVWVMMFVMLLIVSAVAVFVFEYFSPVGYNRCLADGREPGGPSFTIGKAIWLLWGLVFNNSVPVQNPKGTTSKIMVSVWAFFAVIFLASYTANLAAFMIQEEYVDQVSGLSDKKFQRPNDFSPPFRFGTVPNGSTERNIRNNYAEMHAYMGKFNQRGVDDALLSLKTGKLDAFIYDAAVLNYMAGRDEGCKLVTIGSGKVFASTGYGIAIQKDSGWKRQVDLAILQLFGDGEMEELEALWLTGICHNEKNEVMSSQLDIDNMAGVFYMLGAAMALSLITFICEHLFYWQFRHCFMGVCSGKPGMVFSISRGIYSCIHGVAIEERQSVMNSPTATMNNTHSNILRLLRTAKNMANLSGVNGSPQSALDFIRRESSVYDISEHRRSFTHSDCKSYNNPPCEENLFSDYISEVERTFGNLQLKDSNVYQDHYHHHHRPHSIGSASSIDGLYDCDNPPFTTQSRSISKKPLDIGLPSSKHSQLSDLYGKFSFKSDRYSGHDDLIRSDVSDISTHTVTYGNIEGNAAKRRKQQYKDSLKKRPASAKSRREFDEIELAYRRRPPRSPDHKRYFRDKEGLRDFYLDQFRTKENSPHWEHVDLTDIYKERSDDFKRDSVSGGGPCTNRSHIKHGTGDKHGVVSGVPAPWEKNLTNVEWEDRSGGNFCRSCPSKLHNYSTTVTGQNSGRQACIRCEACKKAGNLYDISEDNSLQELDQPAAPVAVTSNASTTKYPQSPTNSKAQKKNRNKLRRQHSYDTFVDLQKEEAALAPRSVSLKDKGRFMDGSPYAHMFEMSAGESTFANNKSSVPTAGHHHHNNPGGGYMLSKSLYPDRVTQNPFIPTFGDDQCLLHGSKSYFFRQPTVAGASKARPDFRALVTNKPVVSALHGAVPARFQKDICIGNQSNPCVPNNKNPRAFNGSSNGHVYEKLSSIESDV
Protocol: as §1, §2, §3, §4

[4] = IV pharmacokinetics in Sprague Dawley rats; format: in vivo; conditions: rat, 2 mg/kg, normal saline; for Vd: read-out: Vss
Protocol: Sprague Dawley rats were dosed intravenously using a normal saline formulation containing 2 mg/kg of the compounds identified in the below table. The table below summarizes the results of the IV pharmacokinetics.

Sprague Dawley rats = assay: Porsolt forced swim test; format: in vivo; conditions: 1 h post-dose, 0.1 mg/kg
Protocol: A non-clinical in vivo pharmacology study (Porsolt assay) was performed to measure antidepressant-like effects. The study allowed for the evaluation of the effects of each compound on the Porsolt forced swim test as assessed by the rats' response (reduced floating time) during a 5-minute swimming test.
Male 2-3 month old Sprague Dawley rats were used (Harlan, Indianapolis, Ind.). Rats were housed in Lucite cages with aspen wood chip bedding, maintained on a 12:12 light:dark cycle (lights on at 5 AM), and given ad libitum access to Purina lab chow (USA) and tap water throughout the study.
The Porsolt forced swim test adapted for use in rats was performed as described by Burgdorf et al., (The long-lasting antidepressant effects of rapastinel (GLYX-13) are associated with a metaplasticity process in the medial prefrontal cortex and hippocampus. Neuroscience 308:202-211, 2015). Animals were placed in a 46 cm tall×20 cm in diameter clear glass tube filled to 30 cm with tap water (23±1° C.) for 15 min on the first day (habituation) and 5 min on the subsequent test day. Animals were tested 1 h or 24 h post-dosing with the test compounds or vehicle control (0.5% sodium carboxymethyl cellulose in 0.9% sterile saline). A subset of compounds tested at 1 h post-dosing was tested again 1 wk post-dosing. Animals received a 15 min habituation session 1 day before the first 5 min test. Water was changed after every other animal. Animals were videotaped, and floating time as defined as the minimal amount of effort required to keep the animals head above water was scored offline by a blinded experimenter with high inter-rater reliability (Pearson's r >0.9).

[5] = Sprague-Dawley, po, per os, 10 mg/kg, plasma, read-out: Tmax
[6] = Sprague-Dawley, plasma, po, 10 mg/kg, per os
[7] = Sprague-Dawley, plasma, po, 10 mg/kg, per os 10 mg/kg
[8] = Sprague-Dawley, plasma, po, 10 mg/kg, per os, 10 mg/kg, plasma, read-out: Cmax
[9] = Sprague-Dawley, in vivo, iv, read-out: Cmax

Row | SMILES | EC50 (NMDAR2A) [nM] | NMDAR2A A: % maximal [3H]MK-801 binding relative to 1 mM glycine (NMDAR2A) | Microsomal (Rat): percent of compound remaining [1] [%] | Plasma (Human): percent of compound remaining (Plasma stability (Human)) [%] | Microsomal (Human): percent of compound remaining [2] [%] | Plasma (Rat): percent of compound remaining (Plasma stability (Rat)) [%] | Tmax [3, 5] [min] | AUC(0-t) [3, 6] [ng·h/mL] | bioavailability [3, 7] [%] | Cmax [3, 8] [ng/mL] | CSF Cmax ([3]; per os, 10 mg/kg) [ng/mL] | Brain Cmax ([3]; per os, 10 mg/kg) [ng/mL] | EC50 (NMDAR2B) [nM] | AUC(0-t) ([4]; Sprague-Dawley, in vivo, iv) [ng·h/mL] | clearance ([4]; Sprague-Dawley, in vivo, iv) [mL/min/kg] | half-life ([4]; Sprague-Dawley, in vivo, iv) [min] | Cmax [4, 9] [ng/mL] | Vd ([4]; Sprague-Dawley, in vivo, iv) [L/kg] | Emax (NMDAR2B) [%] | Emax (NMDAR2A) [%] | other results
1 | CC(C)CN1CCCC12CC=CCNC2=O (single isomer, unassigned) [GI-2, 1-isobutyl-1,7-diazaspiro[4.6]undec-9-en-6-one] | < 1 | + (<100%=+) | 102 | 99 | 114 | 104 | 25.2 | 150 | 9 | 132 | 205.53 | 97.39 | < 1 | 326 | 101 | 19.2 | 976 | 2.25 |  |  | NMDAR2B A: % maximal [3H]MK-801 binding relative to 1 mM glycine (NMDAR2B): + (<100%=+)
2 | O=C1NCCCC12CCCCN2 (single isomer, unassigned) [AY, 1,8-diazaspiro[5.5]undecan-7-one] | < 1 | + (<100%=+) | 114 | 104 | 97 | 107 |  |  |  |  | 701.8 | 799.5 | < 1 |  |  |  |  |  |  |  | % F ([3]; per os 10 mg/kg): 79%; AUC(0-last) ([3]; per os, 10 mg/kg, plasma): 6528.55 ng·h/mL; Cmax ([3]; per os, 10 mg/kg, plasma): 3038.07 ng/mL; Tmax ([3]; per os, 10 mg/kg, plasma): 60 min; NMDAR2B A: % maximal [3H]MK-801 binding relative to 1 mM glycine (NMDAR2B): + (<100%=+); AUClast [4]: 1658.09 ng·h/mL; Cl [4]: 20.15 mL/min/kg; Cmax [4]: 1552.63 ng/mL; T1/2 [4]: 9.65 h; Vss [4]: 3.88 L/kg
3 | CC(C)C(=O)N1CCC2(CCCN2C(=O)C(C)C)C1=O (single isomer, unassigned) [GU-1, 1,1′-(6-oxo-1,7-diazaspiro[4.4]nonane-1,7-diyl)bis(2-methylpropan-1-one)] |  | 0% | 94 | 82 | 96 | 89 | 15 | 2100 | 37 | 4620 | 0 | 0 | < 1 | 1140 | 29.3 | 10.8 | 5850 | 0.36 | < 100 |  | 
4 | O=C1NCC=CCC12CC(F)(F)CN2 (single isomer, unassigned) [GL-2, 3,3-difluoro-1,7-diazaspiro[4.6]undec-9-en-6-one] | < 1 |  | 98 | 91 | 99 | 97 | 30 | 30500 | 53 | 5820 | 4433.95 | 3556.03 | < 1 | 11500 | 2.84 | 244 | 1630 | 1.15 |  |  | % reduction in float time (Sprague Dawley rats): 6%; Significance vs. vehicle (Sprague Dawley rats): No
5 | O=C1NCCCCC12CCCCN2 (single isomer, unassigned) [AZ, 1,8-diazaspiro[5.6]dodecan-7-one] | < 1 |  | 91 | 101 | 92 | 101 | 60 | 74300 | 97 | 29100 | 5343.89 | 8074.7 | < 1 | 15400 | 2.17 | 255 | 17900 | 0.17 | < 100 | < 100 | 
6 | O=C1NCCCC12CCCCN2 (single isomer, unassigned) [AX, 1,8-diazaspiro[5.5]undecan-7-one] | < 1 |  | 120 | 105 | 93 | 99 | 60 | 6680 | 98 | 2560 | 342.07 | 1547.36 | ≥ 1 | 1360 | 24.4 | 549 | 1420 | 3.31 | < 100 | < 100 | 
7 | CN1CC=CCC2(CCCN2Cc2ccccc2)C1=O (single isomer, unassigned) [GT-1, 1-benzyl-7-methyl-1,7-diazaspiro[4.6]undec-9-en-6-one] | < 1 |  | 3 | 101 | 72 | 96 | 34.8 | 9.16 | 1 | 23.3 | 0 | 0 | < 1 | 210 | 157 | 39.6 | 421 | 6.5 | < 100 | < 100 | 
